Results from patent US20220324835A1 (Nurix Therapeutics, Inc., priority 2018, published 2022).
Like-named read-outs stand apart in the source and are kept apart here.

What was measured:
T-cell = experiment: CD25 cell surface staining on T-cells stimulated with anti-CD3 antibody alone (Biological Example 2); type: cell-based; details: primary human total T-cells, baseline = anti-CD3/anti-CD28 stimulated cells without inhibitor, read-out: CD25 staining, Anti-CD3 stimulation, fold change over baseline; for fold induction at 1 µM: 1 μM compound; for fold induction at 8 µM: 8 μM compound
primary human NK cells = experiment: NK cell activation assessed by cytokine secretion (coculture with K562 NucRed target cells); type: cell-based; details: for fold induction at 0.625 µM: 0.625 μM compound; for fold induction at 2.5 µM: 2.5 μM compound
Procedure: Peripheral blood mononuclear cells (PBMC) were obtained either: 1) by using Ficoll-Paque™ (GE Healthcare) for separation of peripheral blood hematopoietic cells from buffy coats of healthy human donors; or 2) directly from LeukoPak donations. […] The cells were cultured overnight with IL-2 (60 ng/mL) at 37° C. 5% CO2. Cbl-b inhibitors were added 1 hour prior to stimulation and incubated at 37° C. 5% CO2 at a specific concentration (e.g., 10 μM, 1 μM, or 0.1 μM) with a final DMSO concentration of <0.1%. NK cells were co-cultured with target cells that were engineered to have a red nucleus (K562 NucRed) measurable by flow cytometry. […] The cells were mixed at the indicated ratios (e.g., 5:1, 1:1, or 1:5) of NK (effector cells) to K562 NucRed (target cells) for 6 hours. Cell free supernatants were collected and analyzed for cytokine secretion (e.g. TNFα, IFNγ, or MIP1β) by ELISA or Luminex multiplex kits following the manufacturer's protocol. IFNγ secretion was assessed using an R&D Systems ELISA kit (Catalog #DY285), TNFα secretion was assessed using an R&D Systems ELISA kit (Catalog #DY210), and MIP1β secretion was assessed using an R&D Systems ELISA kit (Catalog #DY271).
Readouts were reported as fold change over baseline. Baseline for this study was the measurement obtained from primary human NK effector cells cocultured with K562 NucRed target cells in the absence of a Cbl-b inhibitor. For NK cells cocultured with K562 NucRed cells, changes greater than 2.0-fold over baseline for cytokine secretion were considered a positive response (Table 10a and 10b).

[1] = K562, 1:1 E/T, read-out: IFNγ secretion
[2] = K562, 1:1 E/T, read-out: MIP1β secretion
[3] = K562, 1:1 E/T, read-out: TNFα secretion
[4] = K562, 1:1 E/T, 10 μM, read-out: IFNγ secretion
[5] = K562, 1:1 E/T, 10 μM, read-out: MIP1β secretion
[6] = K562, 1:1 E/T, 10 μM, read-out: TNFα secretion
[7] = K562, 5:1 E/T, read-out: IFNγ secretion
[8] = K562, 5:1 E/T, read-out: MIP1β secretion
[9] = K562, 5:1 E/T, read-out: TNFα secretion
[10] = K562, 5:1 E/T, 10 μM, read-out: IFNγ secretion
[11] = K562, 5:1 E/T, 10 μM, read-out: MIP1β secretion
[12] = K562, 5:1 E/T, 10 μM, read-out: TNFα secretion
[13] = K562, NK cells cocultured with K562 NucRed, 1:1 E/T, read-out: IFNγ secretion, fold change over baseline
[14] = K562, NK cells cocultured with K562 NucRed, 1:1 E/T, read-out: TNFα secretion, fold change over baseline
[15] = K562, NK cells cocultured with K562 NucRed, 1:1 E/T, 10 μM compound, read-out: IFNγ secretion, fold change over baseline
[16] = K562, NK cells cocultured with K562 NucRed, 1:1 E/T, 10 μM compound, read-out: TNFα secretion, fold change over baseline

Structure (SMILES): C[C@H](c1cc2c(c(C(F)(F)F)c1)CN(c1cccc(C3(Cc4nncn4C)COC3)c1)C2=O)N1CCC(C)(F)CC1 [Example 553b, (R)-6-(1-(4-fluoro-4-methylpiperidin-1-yl)ethyl)-2-(3-(3-((4-methyl-4H-1,2,4-triazol-3-yl)methyl)oxetan-3-yl)phenyl)-4-(trifluoromethyl)isoindolin-1-one]
- fold induction at 1 µM (T-cell): > 1

Structure (SMILES): Cn1cnnc1CC1(c2cccc(N3Cc4c(cc(CN5CC[C@H](F)C5)cc4C(F)(F)F)C3=O)c2)COC1 [Compound 410, 6-{[(3S)-3-fluoropyrrolidin-1-yl]methyl}-2-(3-{3-[(4-methyl-4H-1,2,4-triazol-3-yl)methyl]oxetan-3-yl}phenyl)-4-(trifluoromethyl)-2,3-dihydro-1H-isoindol-1-one]
- fold induction at 1 µM (T-cell): > 1
- fold induction at 8 µM (T-cell): > 1

Structure (SMILES): C[C@@H](c1cc2c(c(C(F)(F)F)c1)CN(c1cccc(C3(Cc4nncn4C)COC3)c1)C2=O)N1C[C@H]2C[C@H]2C1 [Compound 541a, 6-((1S)-1-(3-azabicyclo[3.1.0]hexan-3-yl)ethyl)-2-(3-(3-((4-methyl-4H-1,2,4-triazol-3-yl)methyl)oxetan-3-yl)phenyl)-4-(trifluoromethyl)isoindolin-1-one]
- fold induction at 1 µM (T-cell): > 1

Structure (SMILES): Cn1cnnc1CC1(c2cccc(N3Cc4c(cc(CN5CC[C@@H](C#N)C5)cc4C(F)(F)F)C3=O)c2)COC1 [Compound 421, (R)-1-((2-(3-(3-((4-methyl-4H-1,2,4-triazol-3-yl)methyl)oxetan-3-yl)phenyl)-3-oxo-7-(trifluoromethyl)isoindolin-5-yl)methyl)pyrrolidine-3-carbonitrile]
- fold induction at 1 µM (T-cell): > 1
- fold induction at 8 µM (T-cell): > 1

Structure (SMILES): Cn1cnnc1CC1(c2cccc(NC(=O)c3cc(CN4CC[C@H](F)C4)cc(C4CC4)n3)c2)COC1 [Compound 496, 6-cyclopropyl-4-{[(3S)-3-fluoropyrrolidin-1-yl]methyl}-N-(3-{3-[(4-methyl-1,2,4-triazol-3-yl)methyl]oxetan-3-yl}phenyl)pyridine-2-carboxamide]
- fold induction at 1 µM (T-cell): > 1

Structure (SMILES): C[C@@H](c1cc2c(c(C(F)(F)F)c1)CN(c1cccc(C3(Cc4nncn4C)COC3)c1)C2=O)N1CCC(C)(F)CC1 [Example 553a, (S)-6-(1-(4-fluoro-4-methylpiperidin-1-yl)ethyl)-2-(3-(3-((4-methyl-4H-1,2,4-triazol-3-yl)methyl)oxetan-3-yl)phenyl)-4-(trifluoromethyl)isoindolin-1-one]
- fold induction at 1 µM (T-cell): > 1

Structure (SMILES): C[C@H](Cc1nncn1C)c1cccc(NC(=O)c2cc(C3CC3)cc(C(F)(F)F)n2)c1 [Compound 191, (R)-4-cyclopropyl-N-(3-(1-(4-methyl-4H-1,2,4-triazol-3-yl)propan-2-yl)phenyl)-6-(trifluoromethyl)picolinamide]
- fold induction at 1 µM (primary human NK cells; [1]): 2.01 to 5
- fold induction at 1 µM (primary human NK cells; [2]): 1.01 to 2
- fold induction at 1 µM (primary human NK cells; [3]): 2.01 to 5
- fold induction at 10 µM (primary human NK cells; [4]): 2.01 to 5
- fold induction at 10 µM (primary human NK cells; [5]): 1.01 to 2
- fold induction at 10 µM (primary human NK cells; [6]): 1.01 to 2
- fold induction at 1 µM (primary human NK cells; [7]): 2.01 to 5
- fold induction at 1 µM (primary human NK cells; [8]): 1.01 to 2
- fold induction at 1 µM (primary human NK cells; [9]): 2.01 to 5
- fold induction at 10 µM (primary human NK cells; [10]): > 5
- fold induction at 10 µM (primary human NK cells; [11]): 1.01 to 2
- fold induction at 10 µM (primary human NK cells; [12]): 2.01 to 5

Structure (SMILES): Cn1cnnc1C(F)(F)[C@](C)(F)c1cccc(N2Cc3c(cc(CN4CCC(F)(F)C4)cc3C(F)(F)F)C2=O)c1 [Compound 448, (R)-6-((3,3-difluoropyrrolidin-1-yl)methyl)-2-(3-(1,1,2-trifluoro-1-(4-methyl-4H-1,2,4-triazol-3-yl)propan-2-yl)phenyl)-4-(trifluoromethyl)isoindolin-1-one]
- fold induction at 1 µM (primary human NK cells; [1]): 1.01 to 2
- fold induction at 1 µM (primary human NK cells; [2]): 1.01 to 2
- fold induction at 1 µM (primary human NK cells; [3]): 1.01 to 2
- fold induction at 10 µM (primary human NK cells; [4]): > 5
- fold induction at 10 µM (primary human NK cells; [5]): 2.01 to 5
- fold induction at 10 µM (primary human NK cells; [6]): 2.01 to 5
- fold induction at 1 µM (primary human NK cells; [7]): 1.01 to 2
- fold induction at 1 µM (primary human NK cells; [8]): 1.01 to 2
- fold induction at 1 µM (primary human NK cells; [9]): 1.01 to 2
- fold induction at 10 µM (primary human NK cells; [10]): > 5
- fold induction at 10 µM (primary human NK cells; [11]): 2.01 to 5
- fold induction at 10 µM (primary human NK cells; [12]): 2.01 to 5
- fold induction at 1 µM (T-cell): 0.801 to 1
- fold induction at 8 µM (T-cell): > 1

Structure (SMILES): C[C@H](Cc1nncn1C)c1cccc(NC(=O)c2cc(C(=O)N3CC[C@H](O)C3)cc(C(F)(F)F)n2)c1 [Compound 220, 4-((S)-3-hydroxypyrrolidine-1-carbonyl)-N-(3-((R)-1-(4-methyl-4H-1,2,4-triazol-3-yl)propan-2-yl)phenyl)-6-(trifluoromethyl)picolinamide]
- fold induction at 1 µM (primary human NK cells; [1]): 1.01 to 2
- fold induction at 1 µM (primary human NK cells; [2]): 1.01 to 2
- fold induction at 1 µM (primary human NK cells; [3]): 1.01 to 2
- fold induction at 10 µM (primary human NK cells; [4]): 2.01 to 5
- fold induction at 10 µM (primary human NK cells; [5]): 2.01 to 5
- fold induction at 10 µM (primary human NK cells; [6]): 2.01 to 5
- fold induction at 1 µM (primary human NK cells; [7]): 1.01 to 2
- fold induction at 1 µM (primary human NK cells; [8]): 1.01 to 2
- fold induction at 1 µM (primary human NK cells; [9]): 1.01 to 2
- fold induction at 10 µM (primary human NK cells; [10]): 2.01 to 5
- fold induction at 10 µM (primary human NK cells; [11]): 2.01 to 5
- fold induction at 10 µM (primary human NK cells; [12]): 2.01 to 5

Structure (SMILES): Cn1cnnc1CC1(c2cccc(NC(=O)c3cc(CN4CCC5(CC5)C4)cc(C4CC4)n3)c2)COC1 [Compound 519, 4-((5-azaspiro[2.4]heptan-5-yl)methyl)-6-cyclopropyl-N-(3-(3-((4-methyl-4H-1,2,4-triazol-3-yl)methyl)oxetan-3-yl)phenyl)picolinamide]
- fold induction at 0.625 µM (primary human NK cells; [13]): > 5
- fold induction at 0.625 µM (primary human NK cells; [14]): > 5
- fold induction at 2.5 µM (primary human NK cells; [13]): > 5
- fold induction at 2.5 µM (primary human NK cells; [14]): 1.01 to 2
- fold induction at 10 µM (primary human NK cells; [15]): > 5
- fold induction at 10 µM (primary human NK cells; [16]): 2.01 to 5
- fold induction at 1 µM (T-cell): > 1

Structure (SMILES): Cn1cnnc1CC1(c2cccc(N3Cc4c(cc(CN5CCC[C@H](F)C5)cc4C(F)(F)F)C3=O)c2)COC1 [Compound 432, 6-{[(3S)-3-fluoropiperidin-1-yl]methyl}-2-(3-{3-[(4-methyl-4H-1,2,4-triazol-3-yl)methyl]oxetan-3-yl}phenyl)-4-(trifluoromethyl)-2,3-dihydro-1H-isoindol-1-one]
- fold induction at 1 µM (T-cell): > 1

Structure (SMILES): Cn1cnnc1C(F)(F)[C@](C)(F)c1cccc(N2Cc3c(cc(N4CCNCC4)cc3C(F)(F)F)C2=O)c1 [Compound 442, (R)-6-(Piperazin-1-yl)-2-(3-(1,1,2-trifluoro-1-(4-methyl-4H-1,2,4-triazol-3-yl)propan-2-yl)phenyl)-4-(trifluoromethyl)isoindolin-1-one]
- fold induction at 0.625 µM (primary human NK cells; [13]): 2.01 to 5
- fold induction at 0.625 µM (primary human NK cells; [14]): 2.01 to 5
- fold induction at 2.5 µM (primary human NK cells; [13]): 2.01 to 5
- fold induction at 2.5 µM (primary human NK cells; [14]): 2.01 to 5
- fold induction at 10 µM (primary human NK cells; [15]): 2.01 to 5
- fold induction at 10 µM (primary human NK cells; [16]): 1.01 to 2
- fold induction at 1 µM (T-cell): > 1
- fold induction at 8 µM (T-cell): 0.801 to 1

Structure (SMILES): Cn1cnnc1CC1(c2cccc(N3Cc4c(cc(CN5CC6(CC6)C5)cc4C(F)(F)F)C3=O)c2)COC1 [Compound 487, 6-{5-azaspiro[2.3]hexan-5-ylmethyl}-2-(3-{3-[(4-methyl-1,2,4-triazol-3-yl)methyl]oxetan-3-yl}phenyl)-4-(trifluoromethyl)-3H-isoindol-1-one]
- fold induction at 1 µM (T-cell): > 1

Structure (SMILES): Cn1cnnc1CC1(c2cccc(N3Cc4c(cc(CN5C[C@H]6C[C@H]6C5)cc4C(F)(F)F)C3=O)c2)COC1 [Compound 429, 6-(((1R,5S)-3-azabicyclo[3.1.0]hexan-3-yl)methyl)-2-(3-(3-((4-methyl-4H-1,2,4-triazol-3-yl)methyl)oxetan-3-yl)phenyl)-4-(trifluoromethyl)isoindolin-1-one]
- fold induction at 1 µM (T-cell): > 1
- fold induction at 8 µM (T-cell): > 1
